# Experimental data published in patent publication US20060252766A1, “Methods using a combination of 3-heteroaryl-2-indolinone and a cyclooxygenase-2 inhibitor for the treatment of neoplasia” (PFIZER INC, priority 2002, published 2006).
# Values joined by “and” are separate entries in the source; they are usually repeats but may differ in a detail not shown here. Equal values may be shown once.
# System: 1483 human head and neck squamous cell carcinoma (HNSCC) xenograft
# Experiment: HN1483 tumor model: paw tumor volume of treated mice
# Format: in vivo, nude mice
# Conditions: for Paw volume, paw / Tumor vol.: individual mice; for Tumor vol.: paw minus BKG. 0.10
# [1] = Celecoxib/40 ppm, Day 17 Mar. 16, 2001
# [2] = Celecoxib/40 ppm, Day 21 Mar. 20, 2001
# [3] = Celecoxib/40 ppm, Day 24 Mar. 23, 2001
# [4] = Celecoxib/40 ppm, Day 31 Apr. 2, 2001
# [5] = Celecoxib/40 ppm, Day 31 Mar. 30, 2001
# [6] = Celecoxib/160 ppm, Day 17 Mar. 16, 2001
# [7] = Celecoxib/160 ppm, Day 21 Mar. 20, 2001
# [8] = Celecoxib/160 ppm, Day 24 Mar. 23, 2001
# [9] = Celecoxib/160 ppm, Day 31 Apr. 2, 2001
# [10] = Celecoxib/160 ppm, Day 31 Mar. 30, 2001
compound,measurement,setting,value
"Cc1ccc(-c2cc(C(F)(F)F)nn2-c2ccc(S(N)(=O)=O)cc2)cc1 [Celecoxib, celecoxib, reference compound]","Paw volume, paw","Celecoxib/40 ppm, Day 14 Mar. 13, 2001",0.28 (2×) and 0.25 (2×) and 0.24 (2×) and 0.29 and 0.27
same,Tumor vol. Average,"Celecoxib/40 ppm, Day 17 Mar. 16, 2001, group average",0.17
same,"Paw volume, paw",[1],0.3 and 0.29 (2×) and 0.22 and 0.32 and 0.27 and 0.25 (2×)
same,Tumor vol.,[1],0.20 and 0.19 (2×) and 0.12 and 0.22 and 0.17 and 0.15 (2×)
same,Tumor vol. Average,"Celecoxib/40 ppm, Day 21 Mar. 20, 2001, group average",0.22
same,"Paw volume, paw",[2],0.38 (2×) and 0.23 and 0.36 and 0.28 (2×) and 0.39 and 0.31
same,Tumor vol.,[2],0.28 (3×) and 0.13 and 0.18 (2×) and 0.29 and 0.21
same,Tumor vol. Average,"Celecoxib/40 ppm, Day 24 Mar. 23, 2001, group average",0.23
same,"Paw volume, paw",[3],0.37 and 0.32 and 0.23 and 0.44 and 0.28 and 0.29 and 0.47 and 0.27
same,Tumor vol.,[3],0.27 and 0.22 and 0.13 and 0.34 and 0.18 and 0.19 and 0.37 and 0.17
same,Tumor vol. Average,"Celecoxib/40 ppm, Day 31 Apr. 2, 2001, group average",0.48
same,"Paw volume, paw",[4],0.7 and 0.48 (2×) and 0.25 and 0.75 and 0.44 and 0.38 and 0.89
same,Tumor vol.,[4],0.60 and 0.38 (2×) and 0.18 and 0.55 and 0.34 and 0.28 and 0.79
same,Tumor vol. Average,"Celecoxib/40 ppm, Day 31 Mar. 30, 2001, group average",0.40
same,"Paw volume, paw",[5],0.63 and 0.51 and 0.27 and 0.72 and 0.30 and 0.39 and 0.71 and 0.41
same,Tumor vol.,[5],0.53 and 0.41 and 0.17 and 0.82 and 0.29 and 0.20 and 0.61 and 0.31
same,"Paw volume, paw","Celecoxib/160 ppm, Day 14 Mar. 13, 2001",0.19 and 0.26 and 0.22 and 0.3 and 0.23 (3×) and 0.28
same,Tumor vol. Average,"Celecoxib/160 ppm, Day 17 Mar. 16, 2001, group average (row not labelled)",0.18
same,"Paw volume, paw",[6],0.24 and 0.25 (2×) and 0.21 and 0.31 and 0.23 and 0.29 and 0.27
same,Tumor vol.,[6],0.14 and 0.15 (2×) and 0.11 and 0.21 and 0.13 and 0.19 and 0.17
same,Tumor vol. Average,"Celecoxib/160 ppm, Day 21 Mar. 20, 2001, group average (row not labelled)",0.15
same,"Paw volume, paw",[7],0.22 and 0.28 (2×) and 0.24 and 0.32 and 0.3 (2×) and 0.25
same,Tumor vol.,[7],0.12 and 0.16 (3×) and 0.14 and 0.22 and 0.20 (2×)
same,Tumor vol. Average,"Celecoxib/160 ppm, Day 24 Mar. 23, 2001, group average (row not labelled)",0.19
same,"Paw volume, paw",[8],0.22 and 0.28 and 0.24 (2×) and 0.38 and 0.27 and 0.35 and 0.31
same,Tumor vol.,[8],0.12 and 0.16 and 0.14 (2×) and 0.28 and 0.17 and 0.26 and 0.21
same,Tumor vol. Average,"Celecoxib/160 ppm, Day 31 Apr. 2, 2001, group average (row not labelled)",0.29
same,"Paw volume, paw",[9],0.33 (3×) and 0.57 and 0.29 and 0.59 and 0.4 and 0.28
same,Tumor vol.,[9],0.23 (2×) and 0.22 and 0.47 and 0.19 and 0.49 and 0.30 and 0.10
same,Tumor vol. Average,"Celecoxib/160 ppm, Day 31 Mar. 30, 2001, group average (row not labelled)",0.29
same,"Paw volume, paw",[10],0.38 and 0.32 and 0.3 and 0.49 and 0.33 and 0.57 and 0.4 and 0.5
same,Tumor vol.,[10],0.28 and 0.22 and 0.20 (2×) and 0.39 and 0.23 and 0.47 and 0.30
